# Experimental data taken from patent US8034954B2, “Calcium channel antagonists” (Icagen, Inc., priority 2005, dated 2011).
# System: T-type calcium channels
# Experiment: T-type calcium channel inhibitory activity (Fluo-4 FLIPR fluorescence and whole cell patch clamp)
# Format: cell-based, mammalian
# Conditions: cells natively expressing T-type channels or HEK-293 cells expressing recombinant T-type calcium channels; fluorometric and electrophysiological methods, not distinguished in the table; read-out: Activity (inhibition of T-type calcium channels, IC50)
# Method: T-type calcium channel inhibitory activity of some compounds of the invention was evaluated using both fluorometric as well as electrophysiological measurement methodologies, which are known to those skilled in the art. Fluorescence measurement of changes in intracellular calcium due to entry of calcium through T-type calcium channels was assessed using calcium sensitive fluorescent dyes Fluo-4 and Fluo-3. In brief, cells natively expressing T-type channels or HEK-293 cells transiently or stably expressing recombinant mammalian T-type calcium channels grown in 96-well tissue culture plates in DMEM/High glucose, Hyclone, Fetal Bovine Serum (10%), and 2 mM sodium pyruvate 2 mM (and for cells lines recombinantly expressing T-type calcium channels, G418@400 mg/liter) were loaded with 4 μM Fluo-4 made up in Earls Balanced Salt Solution (EBSS). After incubation for 30 minutes at room temperature, cells were washed with low calcium (0.5 mM) EBSS to remove extracellular Fluo-4. Baseline fluorescence was measured in a FLIPR (FLuorescence Image Plate Reader) (Molecular Devices Inc) after applying test compounds at desired concentration for 5-10 minutes. The effect of test compound on calcium entry was assessed by monitoring changes in Fluo-4 fluorescence following an elevation of extracellular calcium concentration from 0.5 mM to 5 mM. […] Native cells natively expressing T-type channels or HEK-293 cells transiently or stably expressing recombinant mammalian T-type calcium channels were grown in DMEM/High glucose, Hyclone, Fetal Bovine Serum (10%), 2 mM sodium pyruvate 2 mM (and for cells lines recombinantly expressing T-type calcium channels, G418@400 mg/liter) on glass coverslips in 35 mm tissue culture dishes. […] Electrical currents were measured using the whole cell configuration of the patch clamp technique (Axopatch 200B, Axon Instruments (Molecular Devices) (see Hamill et al (1981) PFugers Arch, 1981 391:85-100) using 2-2.5 MOhm resistance glass pipettes filled with 135 CsF, 5 CsCl, 5 NaCl, 5 EGTA, 10 HEPES, pH 7.3 with CsOH, Osmolarity ˜288 mOsm. Test compound effects were typically assessed under conditions in which approximately half of the available channels were inactivated either by an 8 second conditioning depolarization from a holding potential of −100 mV to a potential ranging from −70 mV to −60 mV or by continually holding the membrane potential at −70 mV. Test compounds were assessed for their ability to reduce the amplitude of the inward T-type calcium current elicited by a 100 ms step depolarization −20 or −30 mV.
row,Molecule,IC50
1,"CCOc1cccc(S(=O)(=O)c2cnc(Nc3cc(NCC[C@H]4CCNC4)nc(C)n3)s2)c1 [Example 10, N-[5-(3-ethoxy-benzenesulfonyl)-thiazol-2-yl]-2-methyl-N′-(R)-(pyrrolidin-3-yl-ethyl)-pyrimidine-4,6-diamine]",1 to 1000 nM
2,"CCOc1cccc(S(=O)(=O)c2cnc(Nc3cc(OCCN(C)C)nc(C(F)(F)F)n3)s2)c1 [Example 28, [6-(2-Dimethylamino-ethoxy)-2-trifluormethyl-pyrimidin-4-yl]-[5-(3-Ethoxy-benzenesulfonyl)-thiazol-2-yl]-amine]",1 to 1000 nM
3,"CCOc1cccc(S(=O)(=O)c2cnc(Nc3cc(OC[C@H]4CCCN4)nc(C)n3)s2)c1 [Example 21, N-[5-(3-ethoxy-benzenesulfonyl)-thiazol-2-yl]-[2-methyl-((6R)-1-pyrrolidin-2-yl-methoxy)pyrimidin-4-yl]-amine]",1 to 1000 nM
4,[5-(3-Ethoxy-benzenesulfonyl)-thiazol-2-yl]-[6-(3-methylamino)propyl)-2-methyl-pyrimidin-4-yl]-amine [Example 35],1 to 1000 nM
